Test results published in patent US6350745B1, “Thrombin inhibitors” (Merck & Co., Inc., priority 1999, dated 2002).

Molecular target: human α-thrombin (Homo sapiens, UniProt P00734)
Assay: In vitro assay for determining proteinase inhibition (thrombin)
Assay type: biochemical
Conditions: 25° C., 0.05 M TRIS buffer pH 7.4, 0.15 M NaCl, 0.1% PEG
Protocol: In vitro Assay for Determining Proteinase Inhibition
Assays of human α-thrombin and human trypsin were performed by the methods substantially as described in Thrombosis Research, Issue No. 70, page 173 (1993) by S. D. Lewis et al.
The assays were carried out at 25° C. in 0.05 M TRIS buffer pH 7.4, 0.15 M NaCl, 0.1% PEG. Trypsin assays also contained 1 mM CaCl2. In assays wherein rates of hydrolysis of a p-nitroanilide (pna) substrate were determined, a Thermomax 96-well plate reader was used was used to measure (at 405 nm) the time dependent appearance of p-nitroaniline. sar-PR-pna was used to assay human […]thrombin (Km=125 μM) and bovine trypsin (Km=125 μM). p-Nitroanilide substrate concentration was determined from measurements of absorbance at 342 nm using an extinction coefficient of 8270 cm^−1 M^−1.
In certain studies with potent inhibitors (Ki<10 nM) where the degree of inhibition of thrombin was high, a more sensitive activity assay was employed. […]
Activity assays were performed by diluting a stock solution of substrate at least tenfold to a final concentration ≦0.1 Km into a solution containing enzyme or enzyme equilibrated with inhibitor. Times required to achieve equilibration between enzyme and inhibitor were determined in control experiments. Initial velocities of product formation in the absence (Vo) or presence of inhibitor (Vi) were measured. […]

`Cc1cc2c(c(=O)n1CC(=O)NCc1ncccc1F)NC(=O)OC2(CC1CC1)CC1CC1` [compound 3-1] was tested, and the Ki was < 0.1 µM.
